Test results: the OPERA property sets (Mansouri et al. 2018)

Details: not given

**Q.** With `O=CCCc1ccccc1` as the compound, how does the boiling point read?
**A.** The boiling point was 224 °C.

**Q.** For `CCC1=CCCC1`, which boiling point is on record?
**A.** The boiling point was 106 °C.

**Q.** And the melting point?
**A.** The melting point was -118 °C.

**Q.** For `Nc1ccc(S(=O)(=O)c2ccc(N)cc2)cc1`, which melting point is on record?
**A.** Its melting point is 176 °C.

**Q.** With `C1CC1` as the compound, how does the boiling point read?
**A.** The boiling point was -32.8 °C.

**Q.** And the log10 vapour pressure (mmHg)?
**A.** Its log10 vapour pressure (mmHg) is 3.73.

**Q.** And the melting point?
**A.** The melting point was -127 °C.

**Q.** Which results are given for `CC(=O)CCC(C)C`?
**A.** boiling point: 144 °C; log10 vapour pressure (mmHg): 0.761; melting point: -74 °C

**Q.** Which melting point does the source give for `Oc1c(Cl)cccc1-c1ccccc1` here?
**A.** The melting point was 6 °C.

**Q.** What does the source list for `Clc1ccc(Cl)c(-c2ccccc2)c1`?
**A.** log10 Henry constant (atm·m³/mol): -3.55; log10 vapour pressure (mmHg): -2.86

**Q.** Which results are given for `S=C=Nc1ccc(Cl)cc1`?
**A.** boiling point: 250 °C; melting point: 46 °C

**Q.** With `CC(=O)O[C@]1(C(C)=O)CC[C@H]2[C@@H]3C=C(C)C4=CC(=O)CC[C@]4(C)[C@H]3CC[C@@]21C` as the compound, how does the melting point read?
**A.** The melting point was 214 °C.

**Q.** With `O=[N+]([O-])c1ccccc1Cl` as the compound, how does the ready biodegradability read?
**A.** Its ready biodegradability is “not readily biodegradable”.

**Q.** For `CC(=O)OCC1=C[C@@H]2OC(=O)C3=COC(O[C@@H]4O[C@H](CO)[C@@H](O)[C@H](O)[C@H]4O)C1C32` (some centres not stated), which melting point is on record?
**A.** Its melting point is 132 °C.

**Q.** Which boiling point does the source give for `C=C(CC)CCCC` here?
**A.** Its boiling point is 120 °C.

**Q.** And the log10 vapour pressure (mmHg)?
**A.** Its log10 vapour pressure (mmHg) is 1.29.

**Q.** With `CCS(=O)(=O)CCO` as the compound, how does the melting point read?
**A.** Its melting point is 46 °C.

**Q.** For `CCCCOCCO`, which boiling point is on record?
**A.** Its boiling point is 168 °C.

**Q.** And the log10 Henry constant (atm·m³/mol)?
**A.** Its log10 Henry constant (atm·m³/mol) is -5.8.

**Q.** And the log10 Koc (L/kg)?
**A.** Its log10 Koc (L/kg) is 1.83.

**Q.** And the log10 vapour pressure (mmHg)?
**A.** The log10 vapour pressure (mmHg) was -0.0555.

**Q.** And the melting point?
**A.** The melting point was -74.8 °C.

**Q.** And the ready biodegradability?
**A.** Its ready biodegradability is “readily biodegradable”.

**Q.** With `CC=CC(=O)CC` as the compound, how does the boiling point read?
**A.** The boiling point was 138 °C.

**Q.** With `CNC(=O)Oc1ccccc1C1OCCO1` as the compound, how does the log10 Koc (L/kg) read?
**A.** The log10 Koc (L/kg) was 1.6.

**Q.** What about the log10 vapour pressure (mmHg) of the same compound?
**A.** Its log10 vapour pressure (mmHg) is -6.52.

**Q.** What about the melting point of the same compound?
**A.** Its melting point is 114 °C.

**Q.** For `CC(CNC1CCCCC1)OC(=O)c1ccccc1.Cl` (configuration not stated), which melting point is on record?
**A.** The melting point was 178 °C.

**Q.** For `C=CC(=O)NCO`, which melting point is on record?
**A.** Its melting point is 74.5 °C.

**Q.** With `CC/C=C\CC1=C(C)CCC1=O` as the compound, how does the boiling point read?
**A.** Its boiling point is 258 °C.

**Q.** Which melting point does the source give for `O=C(NC(=O)c1c(F)cccc1F)Nc1cc(Cl)c(OC(F)(F)C(F)C(F)(F)F)cc1Cl` (configuration not stated) here?
**A.** The melting point was 166 °C.

**Q.** For `CCCCN(CCCC)C(C(N)=O)c1ccc(OC)cc1` (configuration not stated), which melting point is on record?
**A.** The melting point was 134 °C.

**Q.** For `C=Cc1ccc(C(=O)O)cc1`, which melting point is on record?
**A.** The melting point was 144 °C.

**Q.** With `CCOC(F)(F)C(F)F` as the compound, how does the boiling point read?
**A.** Its boiling point is 57.5 °C.

**Q.** What about the log10 vapour pressure (mmHg) of the same compound?
**A.** Its log10 vapour pressure (mmHg) is 2.34.

**Q.** Which boiling point does the source give for `CC1CCCS1` (configuration not stated) here?
**A.** Its boiling point is 134 °C.

**Q.** And the melting point?
**A.** The melting point was -101 °C.

**Q.** For `Cc1cc(Cl)cc(Cl)c1`, which boiling point is on record?
**A.** The boiling point was 202 °C.

**Q.** And the melting point?
**A.** Its melting point is 26 °C.

**Q.** For `CC(C)(C(=O)O)n1nc2ccccc2n1`, which melting point is on record?
**A.** Its melting point is 152 °C.

**Q.** For `CCCC/C=C/CCCCC`, which boiling point is on record?
**A.** The boiling point was 192 °C.

**Q.** What about the melting point of the same compound?
**A.** The melting point was -83.8 °C.

**Q.** For `Cn1ccc2ccccc21`, which boiling point is on record?
**A.** The boiling point was 237 °C.

**Q.** For `C[C@@H]1O[C@@H]1P(=O)(O)O`, which melting point is on record?
**A.** The melting point was 94 °C.

**Q.** What does the source list for `CN(C)S(=O)(=O)N(SC(F)(Cl)Cl)c1ccccc1`?
**A.** log10 vapour pressure (mmHg): -6.95; melting point: 106 °C; ready biodegradability: not readily biodegradable

**Q.** For `CC(C)CCCCCCOC(=O)c1ccccc1C(=O)OCCCCCCC(C)C`, which ready biodegradability is on record?
**A.** The ready biodegradability was “readily biodegradable”.

**Q.** Which melting point does the source give for `NC(=O)Nc1ccc2ccccc2c1` here?
**A.** Its melting point is 219 °C.

**Q.** For `C=CCN(CC=C)c1c(C)cc(OC(=O)NC)cc1C`, which melting point is on record?
**A.** The melting point was 67 °C.

**Q.** Which melting point does the source give for `O=[N+]([O-])c1ccc(C=NO)cc1` here?
**A.** Its melting point is 128 °C.

**Q.** For `CC1CC1C` (configuration not stated), which boiling point is on record?
**A.** Its boiling point is 32.6 °C.

**Q.** What about the melting point of the same compound?
**A.** The melting point was -145 °C.

**Q.** For `CCc1oc2ccccc2c1C(=O)c1cc(I)c(O)c(I)c1`, which melting point is on record?
**A.** The melting point was 167 °C.

**Q.** For `CC(C)C(=O)C(=O)C(C)C`, which boiling point is on record?
**A.** The boiling point was 144 °C.

**Q.** With `C[C@@H]1N[C@@H]2CCCCCCCC(=O)O[C@H]3CC[C@@H](CCCCCCCC(=O)O[C@H]1CC2)N[C@H]3C` as the compound, how does the melting point read?
**A.** Its melting point is 121 °C.

**Q.** For `COc1cc2nc(N3CCN(C(=O)C4CCCO4)CC3)nc(N)c2cc1OC` (configuration not stated), which melting point is on record?
**A.** Its melting point is 273 °C.

**Q.** Which melting point does the source give for `C=CP(=O)(O)O` here?
**A.** Its melting point is 43 °C.

**Q.** Which boiling point does the source give for `Clc1ccc2ccccc2c1Cl` here?
**A.** The boiling point was 296 °C.

**Q.** And the log10 Koa?
**A.** The log10 Koa was 6.89.

**Q.** What about the log10 vapour pressure (mmHg) of the same compound?
**A.** The log10 vapour pressure (mmHg) was -2.7.

**Q.** What about the melting point of the same compound?
**A.** The melting point was 36 °C.

**Q.** With `O=[N+]([O-])Nc1ccccc1` as the compound, how does the melting point read?
**A.** The melting point was 47.3 °C.

**Q.** With `O=C(O)c1ccnc(C(=O)O)c1` as the compound, how does the melting point read?
**A.** The melting point was 249 °C.

**Q.** And the ready biodegradability?
**A.** The ready biodegradability was “readily biodegradable”.

**Q.** Which boiling point does the source give for `CCC(=O)OCCC(C)C` here?
**A.** The boiling point was 160 °C.

**Q.** Which results are given for `CCC(Cl)CCl` (configuration not stated)?
**A.** boiling point: 124 °C; log10 vapour pressure (mmHg): 1.32

**Q.** With `CC1(C)NC(=O)NC1=O` as the compound, how does the melting point read?
**A.** Its melting point is 178 °C.

**Q.** Which melting point does the source give for `CCN(CCO)CCn1c(Cc2ccccc2)nc2c1c(=O)n(C)c(=O)n2C` here?
**A.** Its melting point is 80 °C.

**Q.** For `CC(C)=C(C)C(C)C`, which boiling point is on record?
**A.** Its boiling point is 116 °C.

**Q.** And the log10 vapour pressure (mmHg)?
**A.** Its log10 vapour pressure (mmHg) is 1.35.

**Q.** And the melting point?
**A.** The melting point was -113 °C.

**Q.** With `CC(=O)c1cccc(C(C)=O)c1` as the compound, how does the melting point read?
**A.** The melting point was 32 °C.

**Q.** Which melting point does the source give for `O=C(Cn1ccnc1[N+](=O)[O-])NCc1ccccc1` here?
**A.** The melting point was 189 °C.

**Q.** With `CCCCCCCCOC(=O)CCCCC(=O)OCCCCCCCC` as the compound, how does the log10 Henry constant (atm·m³/mol) read?
**A.** Its log10 Henry constant (atm·m³/mol) is -6.36.

**Q.** And the log10 vapour pressure (mmHg)?
**A.** The log10 vapour pressure (mmHg) was -6.07.

**Q.** And the melting point?
**A.** Its melting point is -70 °C.

**Q.** For `CC(=O)N=C1C=CC(=O)C=C1`, which melting point is on record?
**A.** Its melting point is 74.5 °C.

**Q.** Which boiling point does the source give for `CCC(O)CN` (configuration not stated) here?
**A.** The boiling point was 169 °C.

**Q.** And the melting point?
**A.** The melting point was 3 °C.

**Q.** For `CCCCCCCCn1sccc1=O`, which log10 vapour pressure (mmHg) is on record?
**A.** Its log10 vapour pressure (mmHg) is -4.43.

**Q.** For `NC(Cc1ccccc1)C(=O)O` (configuration not stated), which ready biodegradability is on record?
**A.** The ready biodegradability was “readily biodegradable”.

**Q.** Which boiling point does the source give for `Nc1ccc(C=CC(=O)O)cc1` here?
**A.** Its boiling point is 285 °C.

**Q.** What about the melting point of the same compound?
**A.** Its melting point is 122 °C.

**Q.** Which melting point does the source give for `CC(=O)Oc1cc(C)c(OC(C)=O)c2ccccc12` here?
**A.** Its melting point is 113 °C.

**Q.** Which boiling point does the source give for `C#C[C@H](O)CC` here?
**A.** The boiling point was 125 °C.

**Q.** For `O=CC1CCCO1` (configuration not stated), which boiling point is on record?
**A.** The boiling point was 142 °C.

**Q.** With `CCCCCCC(=O)Cl` as the compound, how does the boiling point read?
**A.** The boiling point was 145 °C.

**Q.** What about the log10 vapour pressure (mmHg) of the same compound?
**A.** The log10 vapour pressure (mmHg) was -0.35.

**Q.** What about the melting point of the same compound?
**A.** The melting point was -83.8 °C.

**Q.** With `COCCCCl` as the compound, how does the boiling point read?
**A.** The boiling point was 111 °C.

**Q.** Which log10 Henry constant (atm·m³/mol) does the source give for `COO` here?
**A.** The log10 Henry constant (atm·m³/mol) was -5.34.

**Q.** Which results are given for `CCCCCCCCCCCCCCCCC`?
**A.** boiling point: 302 °C; log10 biodegradation half-life (days): 1.3; log10 vapour pressure (mmHg): -3.64; melting point: 22 °C; ready biodegradability: readily biodegradable

**Q.** With `CCOC(OCC)N(C)C` as the compound, how does the boiling point read?
**A.** The boiling point was 129 °C.

Same assay, conditions: fish

**Q.** For `Clc1cccc(Cl)c1`, which log10 BCF is on record?
**A.** The log10 BCF was 2.33.

**Q.** What about the log10 biotransformation half-life (days) of the same compound?
**A.** The log10 biotransformation half-life (days) was -0.21.

**Q.** With `CC(C)OP(=O)(OC(C)C)SCc1ccccc1` as the compound, how does the log10 BCF read?
**A.** Its log10 BCF is 0.94.

**Q.** What about the log10 biotransformation half-life (days) of the same compound?
**A.** Its log10 biotransformation half-life (days) is -1.2.

**Q.** For `C1CCC2CCCCC2C1` (configuration not stated), which log10 BCF is on record?
**A.** The log10 BCF was 3.25.

**Q.** For `Clc1ccc(Cl)c(-c2ccccc2)c1`, which log10 BCF is on record?
**A.** Its log10 BCF is 3.98.

**Q.** What about the log10 biotransformation half-life (days) of the same compound?
**A.** The log10 biotransformation half-life (days) was 2.38.

**Q.** Which log10 BCF does the source give for `O=[N+]([O-])c1ccccc1Cl` here?
**A.** Its log10 BCF is 1.17.

**Q.** What about the log10 biotransformation half-life (days) of the same compound?
**A.** The log10 biotransformation half-life (days) was -0.58.
